From the supplement of paper PMC12076712

Legend:
Assay in all cases: pIC50, kinobeads binding competition
[1] = biological target: BLK (UniProt P51451)
In short: (§1)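 Nine compound concentrations were tested, starting at 30 μM in 1:4 steps on live Jurkat cells (60 min, 37 °C, then lysis) or in 1:5 steps on Jurkat lysate or a 1:1:1:1 HEK293/K-562/HepG2/placenta lysate mix (60 min, 4 °C). Kinobeads-bound proteins were digested and quantified with TMT10 LC-MS/MS. pIC50 values are from logistic dose-response fits in the R drc package of fold changes relative to vehicle, from biological duplicates.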

[2] = biological target: T1, ITK (UniProt Q08881)
T1 sequence (whole entry): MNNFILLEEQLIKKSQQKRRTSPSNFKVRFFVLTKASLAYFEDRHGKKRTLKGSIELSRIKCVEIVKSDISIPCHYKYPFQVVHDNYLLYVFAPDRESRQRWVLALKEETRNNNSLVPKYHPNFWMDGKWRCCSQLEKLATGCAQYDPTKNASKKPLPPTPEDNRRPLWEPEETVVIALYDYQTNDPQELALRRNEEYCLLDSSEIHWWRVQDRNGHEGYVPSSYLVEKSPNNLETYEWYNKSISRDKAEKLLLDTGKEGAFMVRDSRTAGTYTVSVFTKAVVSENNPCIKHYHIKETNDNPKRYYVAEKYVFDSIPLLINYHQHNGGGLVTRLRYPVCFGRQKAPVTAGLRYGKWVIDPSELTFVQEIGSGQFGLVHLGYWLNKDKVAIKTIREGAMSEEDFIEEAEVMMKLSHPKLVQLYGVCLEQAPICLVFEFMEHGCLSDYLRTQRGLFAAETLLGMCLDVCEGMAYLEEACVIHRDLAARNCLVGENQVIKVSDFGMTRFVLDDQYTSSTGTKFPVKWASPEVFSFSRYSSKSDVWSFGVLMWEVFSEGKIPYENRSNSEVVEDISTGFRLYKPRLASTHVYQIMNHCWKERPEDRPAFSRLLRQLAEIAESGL
In short: as §1

[3] = biological target: PAK1 (UniProt Q13153); settings: cell material: Jurkat cells
Chain of PAK1 (Q13153 whole entry): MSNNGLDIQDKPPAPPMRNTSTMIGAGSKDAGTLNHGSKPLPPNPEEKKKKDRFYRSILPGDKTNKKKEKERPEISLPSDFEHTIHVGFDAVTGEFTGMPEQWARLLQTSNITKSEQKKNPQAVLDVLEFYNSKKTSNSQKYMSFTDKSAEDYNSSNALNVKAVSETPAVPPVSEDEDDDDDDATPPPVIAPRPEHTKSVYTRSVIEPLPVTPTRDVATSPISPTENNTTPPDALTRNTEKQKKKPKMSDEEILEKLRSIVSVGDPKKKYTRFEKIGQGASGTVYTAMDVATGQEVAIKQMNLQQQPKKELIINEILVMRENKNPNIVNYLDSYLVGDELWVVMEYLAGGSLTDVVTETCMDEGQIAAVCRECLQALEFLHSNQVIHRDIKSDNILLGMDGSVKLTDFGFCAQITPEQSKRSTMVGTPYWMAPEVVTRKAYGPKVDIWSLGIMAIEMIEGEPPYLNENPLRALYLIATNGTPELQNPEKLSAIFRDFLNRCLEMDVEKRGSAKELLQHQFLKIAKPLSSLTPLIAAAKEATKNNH
In short: as §1

[4] = biological target: PIK3R4 (UniProt Q99570); settings: cell material: Jurkat cells
Chain of PIK3R4 (Q99570 whole entry): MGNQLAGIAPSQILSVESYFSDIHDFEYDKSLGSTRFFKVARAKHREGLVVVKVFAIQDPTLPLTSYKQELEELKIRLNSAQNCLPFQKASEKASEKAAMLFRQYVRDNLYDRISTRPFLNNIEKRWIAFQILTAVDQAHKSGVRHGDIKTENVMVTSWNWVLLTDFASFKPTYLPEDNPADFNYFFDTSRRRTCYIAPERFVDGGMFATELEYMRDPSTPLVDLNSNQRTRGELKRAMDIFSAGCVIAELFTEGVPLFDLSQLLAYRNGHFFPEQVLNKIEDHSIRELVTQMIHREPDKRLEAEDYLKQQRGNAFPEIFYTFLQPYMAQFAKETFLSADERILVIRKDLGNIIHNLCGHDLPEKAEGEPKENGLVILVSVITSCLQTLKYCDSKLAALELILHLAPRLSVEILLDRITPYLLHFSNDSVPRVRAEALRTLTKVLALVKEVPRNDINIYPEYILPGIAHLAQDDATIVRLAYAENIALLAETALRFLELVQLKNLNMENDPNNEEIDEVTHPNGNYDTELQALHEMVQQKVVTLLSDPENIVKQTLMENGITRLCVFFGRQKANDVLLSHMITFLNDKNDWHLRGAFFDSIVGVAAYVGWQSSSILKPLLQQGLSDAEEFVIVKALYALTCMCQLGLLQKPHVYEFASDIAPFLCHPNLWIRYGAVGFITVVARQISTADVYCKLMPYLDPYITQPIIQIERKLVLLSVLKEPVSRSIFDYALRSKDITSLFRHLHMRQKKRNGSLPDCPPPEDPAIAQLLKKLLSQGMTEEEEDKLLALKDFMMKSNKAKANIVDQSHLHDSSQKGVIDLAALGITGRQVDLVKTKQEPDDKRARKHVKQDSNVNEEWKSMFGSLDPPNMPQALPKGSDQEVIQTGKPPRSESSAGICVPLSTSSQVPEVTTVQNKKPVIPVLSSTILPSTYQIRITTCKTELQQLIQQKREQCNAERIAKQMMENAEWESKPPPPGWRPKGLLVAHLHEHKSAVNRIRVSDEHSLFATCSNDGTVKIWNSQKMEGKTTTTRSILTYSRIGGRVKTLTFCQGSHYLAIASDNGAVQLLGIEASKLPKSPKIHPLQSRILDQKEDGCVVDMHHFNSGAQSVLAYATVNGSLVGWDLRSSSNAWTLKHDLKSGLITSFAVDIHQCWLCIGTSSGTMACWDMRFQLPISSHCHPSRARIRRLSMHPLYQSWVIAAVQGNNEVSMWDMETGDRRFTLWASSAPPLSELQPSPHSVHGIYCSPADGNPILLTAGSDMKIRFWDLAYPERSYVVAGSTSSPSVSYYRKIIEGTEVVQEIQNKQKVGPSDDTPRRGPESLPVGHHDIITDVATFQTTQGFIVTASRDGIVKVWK
In short: as §1

[5] = biological target: PRKCH (UniProt P24723)
Chain of PRKCH (P24723 whole entry, looked up): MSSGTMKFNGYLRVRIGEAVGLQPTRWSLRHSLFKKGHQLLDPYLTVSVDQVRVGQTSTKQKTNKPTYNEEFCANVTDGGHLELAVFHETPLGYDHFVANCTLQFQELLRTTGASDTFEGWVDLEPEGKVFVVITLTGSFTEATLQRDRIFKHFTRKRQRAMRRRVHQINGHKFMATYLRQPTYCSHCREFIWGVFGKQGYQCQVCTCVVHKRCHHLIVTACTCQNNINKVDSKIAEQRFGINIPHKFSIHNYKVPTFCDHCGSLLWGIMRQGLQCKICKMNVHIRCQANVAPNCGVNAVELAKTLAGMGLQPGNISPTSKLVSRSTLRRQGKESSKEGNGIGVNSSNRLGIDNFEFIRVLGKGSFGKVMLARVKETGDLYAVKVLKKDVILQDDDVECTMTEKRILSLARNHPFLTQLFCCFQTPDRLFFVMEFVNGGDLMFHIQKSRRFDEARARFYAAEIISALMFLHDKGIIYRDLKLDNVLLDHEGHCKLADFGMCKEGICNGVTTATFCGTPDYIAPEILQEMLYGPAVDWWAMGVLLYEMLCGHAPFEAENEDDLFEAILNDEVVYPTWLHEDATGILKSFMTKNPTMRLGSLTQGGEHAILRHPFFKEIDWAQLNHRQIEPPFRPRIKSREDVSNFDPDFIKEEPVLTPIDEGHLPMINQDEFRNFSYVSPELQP
In short: as §1

[6] = biological target: T2, PRKG2 (UniProt Q13237); settings: cell material: Jurkat lysate
T2 sequence (whole entry): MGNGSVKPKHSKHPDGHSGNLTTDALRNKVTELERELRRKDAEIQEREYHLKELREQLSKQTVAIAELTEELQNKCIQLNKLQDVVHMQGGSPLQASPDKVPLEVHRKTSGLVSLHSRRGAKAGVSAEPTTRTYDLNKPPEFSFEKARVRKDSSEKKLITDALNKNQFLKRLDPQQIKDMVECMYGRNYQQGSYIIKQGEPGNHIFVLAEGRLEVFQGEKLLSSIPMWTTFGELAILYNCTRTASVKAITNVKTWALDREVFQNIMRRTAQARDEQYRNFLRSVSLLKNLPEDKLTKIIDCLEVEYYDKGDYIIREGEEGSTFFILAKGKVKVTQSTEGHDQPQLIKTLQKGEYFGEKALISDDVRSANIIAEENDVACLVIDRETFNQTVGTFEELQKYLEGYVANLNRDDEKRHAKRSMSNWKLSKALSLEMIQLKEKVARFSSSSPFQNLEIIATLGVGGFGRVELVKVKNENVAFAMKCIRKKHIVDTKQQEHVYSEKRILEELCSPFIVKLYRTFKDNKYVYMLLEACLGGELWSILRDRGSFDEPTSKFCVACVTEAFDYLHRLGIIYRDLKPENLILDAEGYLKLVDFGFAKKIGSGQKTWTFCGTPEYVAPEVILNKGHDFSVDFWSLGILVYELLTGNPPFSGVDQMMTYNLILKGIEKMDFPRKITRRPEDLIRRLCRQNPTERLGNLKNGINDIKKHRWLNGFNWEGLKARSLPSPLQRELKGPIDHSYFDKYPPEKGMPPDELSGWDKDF
In short: as §1

[7] = biological target: RAF1 (UniProt P04049)
Chain of RAF1 (P04049 whole entry): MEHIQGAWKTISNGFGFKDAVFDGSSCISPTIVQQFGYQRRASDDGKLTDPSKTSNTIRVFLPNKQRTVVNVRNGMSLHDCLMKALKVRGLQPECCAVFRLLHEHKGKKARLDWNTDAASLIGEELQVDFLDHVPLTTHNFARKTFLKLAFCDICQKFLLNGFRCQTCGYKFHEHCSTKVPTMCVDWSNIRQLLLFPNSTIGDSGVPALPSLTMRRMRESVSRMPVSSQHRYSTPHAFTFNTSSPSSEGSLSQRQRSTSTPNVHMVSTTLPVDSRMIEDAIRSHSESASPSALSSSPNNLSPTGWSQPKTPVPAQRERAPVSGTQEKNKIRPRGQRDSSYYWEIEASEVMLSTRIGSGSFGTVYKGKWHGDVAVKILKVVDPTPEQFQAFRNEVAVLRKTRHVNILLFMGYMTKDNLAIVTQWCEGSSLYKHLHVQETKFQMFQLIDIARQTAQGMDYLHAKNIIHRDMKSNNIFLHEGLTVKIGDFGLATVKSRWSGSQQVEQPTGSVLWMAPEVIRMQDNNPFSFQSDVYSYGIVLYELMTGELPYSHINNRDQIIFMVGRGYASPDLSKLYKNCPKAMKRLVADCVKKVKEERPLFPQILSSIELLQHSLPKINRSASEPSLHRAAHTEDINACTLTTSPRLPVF
In short: as §1

[8] = biological target: T3, TXK (UniProt P42681)
T3 sequence (whole entry): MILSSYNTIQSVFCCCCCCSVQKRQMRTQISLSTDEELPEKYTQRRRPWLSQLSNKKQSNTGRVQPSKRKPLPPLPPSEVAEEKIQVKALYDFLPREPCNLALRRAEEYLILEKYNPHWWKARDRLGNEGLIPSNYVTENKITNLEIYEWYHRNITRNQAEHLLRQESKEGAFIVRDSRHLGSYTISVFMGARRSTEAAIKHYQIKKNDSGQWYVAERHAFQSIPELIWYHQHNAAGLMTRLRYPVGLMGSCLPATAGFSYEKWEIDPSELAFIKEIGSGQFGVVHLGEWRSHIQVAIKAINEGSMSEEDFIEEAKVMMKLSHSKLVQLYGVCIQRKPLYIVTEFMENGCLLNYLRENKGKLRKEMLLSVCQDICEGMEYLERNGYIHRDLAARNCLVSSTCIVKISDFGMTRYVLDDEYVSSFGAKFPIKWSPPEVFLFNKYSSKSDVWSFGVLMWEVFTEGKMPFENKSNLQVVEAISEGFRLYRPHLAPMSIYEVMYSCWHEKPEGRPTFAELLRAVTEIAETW
In short: as §1

[9] = biological target: T4, UHMK1 (UniProt Q8TAS1); settings: cell material: Jurkat lysate
T4 sequence (whole entry): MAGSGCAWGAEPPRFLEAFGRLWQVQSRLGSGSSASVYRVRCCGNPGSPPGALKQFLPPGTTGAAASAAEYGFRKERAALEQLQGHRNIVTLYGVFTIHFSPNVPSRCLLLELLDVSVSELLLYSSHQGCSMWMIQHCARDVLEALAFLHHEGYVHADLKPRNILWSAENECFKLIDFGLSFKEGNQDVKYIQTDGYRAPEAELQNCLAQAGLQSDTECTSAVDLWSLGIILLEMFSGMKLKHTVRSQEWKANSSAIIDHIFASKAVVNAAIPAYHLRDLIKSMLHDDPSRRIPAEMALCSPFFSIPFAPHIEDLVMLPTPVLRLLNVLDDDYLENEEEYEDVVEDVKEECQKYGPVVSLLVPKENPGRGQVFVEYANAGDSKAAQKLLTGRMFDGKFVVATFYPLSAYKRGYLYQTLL
In short: as §1

[10] = biological target: UniProt Q9H093; settings: cell material: Lysate mix
Chain of UniProt Q9H093 (Q9H093 whole entry): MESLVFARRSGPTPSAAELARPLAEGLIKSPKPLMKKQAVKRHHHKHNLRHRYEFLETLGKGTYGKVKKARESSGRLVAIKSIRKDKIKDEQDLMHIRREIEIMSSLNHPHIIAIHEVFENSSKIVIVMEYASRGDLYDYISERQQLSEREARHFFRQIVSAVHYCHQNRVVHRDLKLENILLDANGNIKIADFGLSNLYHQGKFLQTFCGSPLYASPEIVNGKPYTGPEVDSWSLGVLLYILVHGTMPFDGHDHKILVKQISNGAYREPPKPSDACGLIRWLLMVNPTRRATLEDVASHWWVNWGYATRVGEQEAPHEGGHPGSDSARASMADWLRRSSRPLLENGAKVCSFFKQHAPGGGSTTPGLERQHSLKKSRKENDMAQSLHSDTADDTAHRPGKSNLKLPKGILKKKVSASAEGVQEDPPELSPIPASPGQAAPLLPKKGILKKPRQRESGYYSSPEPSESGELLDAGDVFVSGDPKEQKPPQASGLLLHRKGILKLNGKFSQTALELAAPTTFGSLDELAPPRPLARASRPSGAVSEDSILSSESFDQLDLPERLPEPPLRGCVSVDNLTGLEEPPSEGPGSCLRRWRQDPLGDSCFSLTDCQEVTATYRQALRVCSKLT
In short: as §1

Chain of BLK (P51451 whole entry, looked up): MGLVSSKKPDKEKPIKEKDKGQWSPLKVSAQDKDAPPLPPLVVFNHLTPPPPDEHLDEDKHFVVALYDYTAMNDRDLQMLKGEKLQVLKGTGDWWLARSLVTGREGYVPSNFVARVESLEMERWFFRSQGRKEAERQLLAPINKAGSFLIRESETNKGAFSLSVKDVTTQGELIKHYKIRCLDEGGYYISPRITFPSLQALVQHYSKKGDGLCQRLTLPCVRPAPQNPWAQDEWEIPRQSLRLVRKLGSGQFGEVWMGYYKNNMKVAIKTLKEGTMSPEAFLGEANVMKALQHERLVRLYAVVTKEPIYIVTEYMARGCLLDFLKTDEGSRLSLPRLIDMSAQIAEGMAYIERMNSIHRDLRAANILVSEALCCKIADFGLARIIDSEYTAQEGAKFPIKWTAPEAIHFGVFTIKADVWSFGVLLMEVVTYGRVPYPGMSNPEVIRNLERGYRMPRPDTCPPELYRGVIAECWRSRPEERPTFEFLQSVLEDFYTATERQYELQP

| SMILES | pIC50 ([1]; cell material: Jurkat cells) | pIC50 ([1]; cell material: Jurkat lysate) | pIC50 ([2]; cell material: Jurkat cells) | pIC50 ([2]; cell material: Jurkat lysate) | pIC50 [3] | pIC50 [4] | pIC50 ([5]; cell material: Jurkat lysate) | pIC50 [6] | pIC50 ([7]; cell material: Jurkat cells) | pIC50 ([8]; cell material: Jurkat cells) | pIC50 ([8]; cell material: Jurkat lysate) | pIC50 [9] | pIC50 [10] | pIC50 ([5]; cell material: Jurkat cells) | pIC50 ([7]; cell material: Jurkat lysate) |
| --- | --- | --- | --- | --- | --- | --- | --- | --- | --- | --- | --- | --- | --- | --- | --- |
| C#CCNC(=O)c1cc(Nc2cc(C3CC3)[nH]n2)nc(N2CCN(Cc3ccc(S(=O)(=O)F)cc3)CC2)n1 | 6.82 | 6.51 | 6.78 | 5.4 | < 4.52 | 4.69 | < 4.52 | < 4.52 | < 4.52 | 5.4 | < 4.52 | < 4.52 |  |  |  |
| Cc1cc(Nc2cc(C(=O)NCCNC(=O)OC3CC/C=C/CCC3)nc(N3CCN(Cc4ccc(S(=O)(=O)F)cc4)CC3)n2)n[nH]1 (stereo not drawn) |  |  |  |  |  |  |  |  |  |  |  |  | < 4.52 |  |  |
| O=C(NCCNC(=O)c1cc(Nc2cc(C3CC3)[nH]n2)nc(N2CCN(Cc3ccc(S(=O)(=O)F)cc3)CC2)n1)OC1CC/C=C/CCC1 (stereo not drawn) | 6.73 | 5.1 | 6.7 | < 4.52 | < 4.52 | < 4.52 | < 4.52 | < 4.52 | < 4.52 | < 4.52 | < 4.52 | < 4.52 | < 4.52 | < 4.52 | < 4.52 |
